Measured values: patent publication US11766407B2, “Polymerized whey protein encapsulated antioxidant compound and a process for preparation of same” (FoodScience Corporation, priority 2020, dated 2023)

Columns and labels:
[1] = Physicochemical characterization of PWPC-GSH (particle size, zeta potential, rheology, TEM); conditions: GSH alone
in vivo = conditions: male, ICR, mouse, po
Method: ICR mice, male, SPF, 3 weeks, weighing from 18 to 22 g were provided by Beijing HFK Bioscience Co., Ltd (Beijing, China).
All mice were housed in plastic lab animal cages in a ventilated room. The room was maintained at 20±2° C. and 60±10% relative humidity with a 12 h light/dark cycle. Water and commercial laboratory complete food for mice were available ad libitum. They were acclimated to this environment for 7 days before treatment. All animal experiments were approved by the Animal Welfare and Research Ethics Committee at Jilin University (Approval ID: SY201905018).
Blood collection. Before blood collection, 30 μL heparin solution was added to 1.5 mL centrifugal tubes and vortexed. The blood samples (about 0.5 mL) was collected by removing one eye of the mice. The blood was centrifuged at 6000 rpm at room temperature for 2 min. The upper plasma was transferred to a new centrifugal tube.
Pharmacokinetic parameters were calculated using a mouse model.

- particle size [1]: 287.83±6.18 nm
- AUC (in vivo): 19200 ng·h/mL
- Cmax (in vivo): 7370 ng/mL
- Tmax (in vivo): 2 h
Structure (SMILES): N[C@@H](CCC(=O)N[C@@H](CS)C(=O)NCC(=O)O)C(=O)O [GSH, Glutathione]
